Among the data in US20130345243A1, “1H-PYROLLO[3,2-D]PYRIMIDINEDIONE DERIVATIVES” (GLAXOSMITHKLINE LLC, priority 2011, published 2013) are pEC50 and reduces blood glucose values, retold here.

The test system of one assay is Human recombinant AMPK. Kind of assay: AMPK Enzymatic Assay (Z'Lyte FRET). The assay is classed as biochemical. The following applies: ATP 100 μM, peptide 2 μM, means of at least 2 independent experiments. The protocol: Human recombinant AMPK (Invitrogen #PV4673 & #PV4675) is used in a FRET assay format (Z'Lyte—Invitrogen). Assay conditions are as follow: ATP 100 μM, peptide (Invitrogen # PR8650) 2 μM, 1% final DMSO in Z'Lyte kinase buffer. Reaction is initiated by addition of 0.2-0.8 ng of AMPK and incubated for 1-hour @ 30° C. A further 1-hour incubation @ 30° C. with the development reagent (Invitrogen # PR5194) is performed. FRET signal is then measured and converted to “% peptide phosphorylation” according to Z'Lyte given calculation procedure. Evaluation of compounds is carried out using concentration-response curves. Final data are expressed in “% activation” calculating the ratio of “% peptide phosphorylation” between compound-condition and basal-condition. Alternatively pEC200 (−Log(compound concentration leading to a 2-fold AMPK activity increase)) is produced through fitting of the concentration-response curves. All data are means of at least 2 independent experiments.

The subject of the next assay is ob/ob and db/db mice. The following applies: 8 day administration; cited from earlier work.

Turning to `Cl.Nc1nc(-c2ccc(-n3c(Cl)cc4[nH]c(=O)n(-c5cccc(C(=O)O)c5)c(=O)c43)cc2)cs1` [Example 11, 3-(5-(4-(2-Aminothiazol-4-yl)phenyl)-6-chloro-2,4-dioxo-1H-pyrrolo[3,2-d]pyrimidin-3(2H,4H,5H)-yl)benzoic acid hydrochloride], the pEC50 with Human recombinant AMPK was determined as 6.2. Still for that read-out and setting: then `Nc1nc(-c2ccc(-n3c(Cl)cc4[nH]c(=O)n(-c5ccccc5F)c(=O)c43)cc2)cs1` [Example 12, 5-[4-(2-Amino-1,3-thiazol-4-yl)phenyl]-6-chloro-3-(2-fluorophenyl)-1H-pyrrolo[3,2-d]pyrimidine-2,4(3H,5H)-dione], with 6.1.

As for `NC(=O)c1ncn([C@@H]2O[C@H](CO)[C@@H](O)[C@H]2O)c1N` [AICAR], the reduces blood glucose in the assay with ob/ob and db/db mice is reported as 35%.

The term pEC50 denotes −log10 of the EC50, conventionally taken in molar units.
